Data: publication PMC12355554, “Development of novel mitochondrial pyruvate carrier inhibitors for breast cancer treatment” (The Journal of Biological Chemistry, 2025)
“Also recorded” adds a separate entry of the source.

What was measured:
[1] = system: succinate-driven respiration in 4T1 cells; test: Seahorse succinate-driven respiration in permeabilized 4T1 cells; format: cell-based, murine; details: candidate compounds 1 μM
Source text: Although our initial experiments and previous literature illustrate the ability of the candidate compounds to inhibit Pyr-driven respiration, we sought to investigate the ability of candidate compounds to inhibit respiration fueled by other metabolic substrates, glutamate and succinate (Fig. 2). Glutamate, similar to Pyr oxidation, results in NADH equivalents that fuel complex I-mediated respiration, and succinate metabolism offers FADH2 for electrons in complex II-driven respiratory processes. […] To further validate the mode of action of the candidate compounds, a series of similar Seahorse experiments were employed (Fig. 2, A–C). In these experiments, 4T1 cells were first permeabilized and were then offered metabolic substrates Pyr (Pyr/Mal; Fig. 2A), glutamate (Glu/Mal, Fig. 2B), or succinate (Fig. 2C), and the resulting OCR was observed. As described previously, Mal and DCA were included in the substrate milieu of glutamate respiration experiments. […] To validate that inhibition of Pyr respiration is due to mitochondrial Pyr uptake and not other Pyr-processing enzymes (i.e., Pyr dehydrogenase), a parallel experiment using methyl pyruvate (MePyr) was employed (Fig. 2, E and F). MePyr is permeable to the mitochondrial membranes, where in the matrix, mitochondrial esterase hydrolysis activity provides Pyr.
Permeabilized cell assays were performed using rPFO as described previously. 4T1 cells were seeded (20,000 cells/well) onto Seahorse XFe96 well plates and incubated overnight in growth media at 37 °C and 5% CO2 for adherence. On the day of the assay, growth media were aspirated and replaced with MAS buffer (70 mM sucrose, 220 mM mannitol, 10 mM potassium phosphate monobasic, 5 mM magnesium chloride, 2 mM Hepes, and 1 mM EGTA) after 3X rinse of growth media to remove serum and endogenous metabolic substrates, and incubated at 37 °C in a non-CO2 incubator. Respective inhibitor and substrate milieu's were prepared in MAS buffer for port injections A–D at 8X, 9X, 10X, and 11X the target cell concentrations to account for intrinsic dilution factor of in situ injections of each port. […] Final substrate concentrations for specific tests were as follows: (5 mM Pyr , 0.5 mM Mal, 2 mM DCA; 10 mM glutamate, 0.5 mM Mal, 2 mM DCA; 10 mM succinate, 2 μM rotenone; 20 mM methyl Pyr, 5 mM Pyr, 0.5 mM Mal, and 2 mM DCA). ATP rate assays and mitochondrial stress tests were performed according to the manufacturer's (Agilent) instructions.

4T1 cells [2] = test: Seahorse mitochondrial stress test in intact 4T1 cells; format: cell-based, murine
4T1 = test: MTT cell proliferation inhibition assay, 4T1; format: cell-based, murine; details: Mus musculus, 72 h, 3 days, average ± SEM
Experimental: (§1) Confluent cell cultures were treated with trypsin and resuspended at 5 × 10^4 cells/ml. To a 96-well plate, 100 μl of the 5 × 10^4 cells/ml solution were added and allowed to incubate at 37 °C, 5% CO2 for 24 h. Compounds were then added and allowed to incubate for 3 days. […] Following the 4-h incubation with 3-(4,5-dimethylthiazol-2-yl)-2,5-diphenyltetrazolium bromide, 100 μl of SDS (0.1 g/ml, 0.01 N HCl) was added, and 96-well plates were allowed to incubate for an additional 4 h. […] Treatment absorbances are taken as percentages of the average untreated absorbances and plotted against log(concentration) in GraphPad Prism 10 (GraphPad Software, Inc) to generate effective concentration values where 50% of the cells are not proliferating (EC50).

67NR = test: MTT cell proliferation inhibition assay, 67NR; format: cell-based, murine; details: Mus musculus, 72 h, 3 days, average ± SEM
Experimental: as §1

MDA-MB-231 = test: Sulforhodamine B cell proliferation inhibition assay, MDA-MB-231; format: cell-based; details: Homo sapiens, 72 h
Experimental: Cells were seeded (3 × 10^4 cells/well) in 48-well plates and incubated overnight (37 °C, 5% CO2). Test compounds were then exposed to cells in duplicate in serial dilution fashion and were incubated for an additional 72 h (37 °C, 5% CO2). Media were then aspirated, and cells were washed three times with cold PBS and left overnight to dry fix. […] Dyed cells were then lysed with Tris (10 mM, pH 10), and absorbance readings were recorded at 540 nm of each well. Treatment absorbances are taken as percentages of the average untreated absorbances and plotted against log(concentration) in GraphPad Prism 10 to generate effective concentration values where 50% of the cells are not proliferating (EC50).

[3] = system: MPC or MCT expression levels; test: Western blotting of MPC and MCT expression; format: cell-based; details: Western blot
Experimental: After denaturation at 95 °C for 10 min in radioimmunoprecipitation buffer, protein concentration was determined and equilibrated using the bicinchoninic acid assay (ThermoScientific), and 20 μg of protein was separated by electrophoresis in 4 to 12% polyacrylamide gels. Proteins were electrophoretically transferred to polyvinylidene fluoride membranes for 90 min at 100 V and stained with Ponceau to verify transfer quality and equal protein loading. […] Santa Cruz, catalog no.: sc-365501, 1:1000 dilution; MCT4, Santa Cruz, catalog no.: sc-376140, 1:1000 dilution; MPC1, Cell Signaling, 1:1000 dilution, catalog no.: 14462; MPC2, Cell Signaling, 1:1000 dilution, catalog no.: 46141; […] TBST, 0.5% nonfat milk protein). Membranes were rinsed three times with TBST and incubated with the respective secondary goat antimouse IgG (1:10,000 dilution) or goat anti-rabbit IgG (1:10,000 dilution) horseradish peroxidase–conjugated antibodies (Cell Signaling). Membranes were again washed three times with TBST and exposed to SuperSignal 60 West luminol enhancer and stable peroxide solution (ThermoScientific) for 2 min. Chemiluminescent images were obtained using a LicorFC imager. Images shown are representative of two separate experiments obtained from independent biological samples.

4T1 cells [4] = test: L-lactate accumulation assay, 4T1; details: MCT1-expressing 4T1 cells; 24 h
Experimental: To test this, we assayed intracellular lactate accumulation following C5 treatment in MCT1-expressing 4T1 cells and MCT4-expressing MDA-MB-231 cells using commercially available lactate kits.
On the third day, media were aspirated, and wells were rinsed twice with cold PBS. […] At this time, 1 ml of PBS was added to each well and underwent freeze–thaw lysis at −80 °C. Media in each well were aliquoted and centrifuged (16,000g, 10 min, 4 °C). The lysate supernatant was then aliquoted, and pellet was discarded. L-lactate concentration was then determined using Eton Biosciences L-Lactate assay kit 1 by mixing lysate sample with L-lactate assay solution in duplicate, incubating for 30 min (37 °C, 0% CO2) and measuring absorbance of enzyme produced INT formazan at 490 nm using a BioTek Synergy 2 plate reader. Absorbance values were compared with an L-lactate standard curve concomitantly ran with test samples to determine lactate concentration in each sample. Lactate concentrations were normalized to total protein using a Pierce Bicinchoninic Acid Protein Assay Kit.

4T1 tumor = test: Tumor efficacy study in a 4T1 syngraft; details: 5 mg/kg daily for 11 days
[5] = system: MPC1 and MPC2 KO 4T1 cells; test: Pyr-driven respiration in CRISPR-Cas9 MPC1/MPC2 KO 4T1 cells; details: permeabilized MPC1/MPC2 KO 4T1 cells, FCCP stimulated

CN(Cc1ccc(C(F)(F)F)cc1)c1ccc2cc(C(=O)O)c(=O)oc2c1.NC(CO)(CO)CO [C5, 1,3-dihydroxy-2-(hydroxymethyl)propan-2-aminium 7-(methyl(4-(trifluoromethyl)benzyl)amino)-2-oxo-2H-chromene-3-carboxylate]
effect on succinate-driven respiration [1]: does not alter; also recorded: did not alter
compensatory glycolysis (extracellular acidification rates) (4T1 cells [2]): dose-dependent decrease
mitochondrial respiration (OCR) (4T1 cells [2]; media with glucose, Pyr, glutamine): inhibited mitochondrial respiration in a dose-dependent fashion
EC50 (4T1): 23.4 ± 4.9 µM
EC50 (67NR): 48 ± 4.3 µM
EC50 (MDA-MB-231): > 1000 µM
effect on MPC or MCT expression levels [3]: does not alter
clinical observations after single oral dose (oral 10, 25, and 40 mg/kg, 7 days): no signs of clinical toxicity
gross pathology, including general cardiotoxicity, after organ resection (oral, end of study): no gross pathology
intracellular lactate accumulation (4T1 cells [4]): potent accumulation of lactate
mouse body weight (4T1 tumor): remained constant
reduction in tumor mass compared with vehicle (4T1 tumor; BALB/c): ~41%
reduction in tumor volume compared with vehicle (4T1 tumor; BALB/c): ~20%
effects on Pyr-driven maximal respiration in MPC-KO lines [5]: largely diminished
